In this series the test system is adult pigs with experimentally induced ARDS. Briefly: ARDS model: adverse side effects on cardiovascular parameters. Type of series: in vivo, pig. Conditions: iv infusion 2 mg/kg, anaesthetized pigs. How it is done:
After ethical approval, 3 months old pigs (body weight 30-35 kg), in all 12, were purchased from a local farm and 2 pigs on 6 occasions brought to the laboratory in the morning on the day for the experiment. […] Upon arrival, the pigs were sedated and thereafter kept fully anaesthetized during the entire experiment until termination late the same day. Tracheostomy was performed and mechanical ventilation performed with a ventilator. This setup is visualized in FIG. 1. Tubes positioned in arteries, veins and via a vein also in the right heart. Equipment was implanted to enable the use of PiCCO instrument (Pulse index, Continuous Cardiac Output=PiCCO) in order to enable exact determination of the total blood volume in the lungs, extra-vascular lung water (EVLW) and cardiac function parameters. Blood pressure transducers were inserted in the pulmonary artery and in a central artery. Arterial blood gasses and additional blood parameters were checked at regular intervals. Oximetry was used to determine hemoglobin oxygen saturation in arterial blood. The core body temperature was kept automatically at desired normal level. EKG was recorded. […]
Treatment with the peptide AF-16 or the vehicle started after the induction of the lung injury (i.e., after the injurious ventilation). […] The PiCCO values were determined once every hour for up to 4 hours after the infusion of the test substance. […]

Each structure is given as a SMILES string. Where a SMILES comes first, the peptide text is derived from it.

On to `CC(C)C[C@H](NC(=O)CNC(=O)[C@@H](NC(=O)[C@H](CC(N)=O)NC(=O)[C@H](CC(N)=O)NC(=O)[C@H](CCC(=O)O)NC(=O)[C@@H]1CCCN1C(=O)[C@H](CC(N)=O)NC(=O)[C@H](CO)NC(=O)[C@H](CCCNC(=N)N)NC(=O)[C@@H](NC(=O)[C@H](CCCCN)NC(=O)[C@H](CO)NC(=O)[C@H](Cc1c[nH]cn1)NC(=O)[C@H](CS)NC(=O)[C@@H](N)C(C)C)[C@@H](C)O)C(C)C)C(=O)O` [AF-16, VCHSKTRSNPENNVGL] (H-VCHSKTRSNPENNVGL-OH; N-terminus and C-terminus assumed), for which the “adverse side effects on cardiovascular parameters, including blood pressure and heart rates” value is recorded as “no adverse side effects could be demonstrated”.
